Experimental data taken from US7977332B2, “Insecticidal N-(heteroarylalkyl)alkanediamine derivatives” (FMC Corporation, priority 2003, dated 2011).

Each compound was assayed on tobacco budworm (Heliothis virescens [Fabricius]) (assay: surface-treated diet test against tobacco budworm). Settings: 0.25 millimolar on the surface of the diet; second instar larvae; five-day exposure.
Type: in vivo
Method: Candidate insecticides were evaluated for activity against the tobacco budworm (Heliothis virescens [Fabricius]) in a surface-treated diet test.
In this test one mL of molten (65-70° C.) wheat germ-based artificial diet was pipetted into each well of a four by six (24 well) multi-well plate (ID# 430345-15.5 mm dia.×17.6 mm deep; Corning Costar Corp., One Alewife Center, Cambridge, Mass. 02140). The diet was allowed to cool to ambient temperature before treatment with candidate insecticide.
For a determination of insecticidal activity, solutions of the candidate insecticides were prepared for testing using a Packard 204DT Multiprobe® Robotic System (Packard Instrument Company, 800 Research Parkway, Meriden, Conn. 06450), in which the robot first diluted a standard 50 millimolar DMSO solution of candidate insecticide with a 1:1 water/acetone solution (V/V) in a ratio of 1:7 stock solution to water/acetone. The robot subsequently pipetted 40 microliters of the so-prepared solution onto the surface of the diet in each of three wells in the 24 multi-well plate. The process was repeated with solutions of seven other candidate insecticides. Once treated, the contents of the multi-well plate were allowed to dry, leaving 0.25 millimoles of candidate insecticide on the surface of the diet, or a concentration of 0.25 millimolar. Appropriate untreated controls containing only DMSO on the diet surface were also included in this test.
For evaluations of the insecticidal activity of a candidate insecticide at varying rates of application, the test was established as described above using sub-multiples of the standard 50 millimolar DMSO solution of candidate insecticide. For example, the standard 50 millimolar solution was diluted by the robot with DMSO to give 5, 0.5, 0.05, 0.005, 0.0005 millimolar, or more dilute solutions of the candidate insecticide. In these evaluations there were six replicates of each rate of application placed on the surface of the diet in the 24 multi-well plate, for a total of four rates of application of candidate insecticide in each plate.
In each well of the test plate was placed one second instar tobacco budworm larvea, each weighing approximately five milligrams. After the larvae were placed in each well, the plate was sealed with clear polyfilm adhesive tape. The tape over each well was perforated to ensure an adequate air supply. The plates were then held in a growth chamber at 25° C. and 60% relative humidity for five days (light 14 hours/day).
After the five-day exposure period insecticidal activity for each rate of application of candidate insecticide was assessed as percent inhibition of insect weight relative to the weight of insects from untreated controls, and percent mortality when compared to the total number of insects infested.
The test compounds of formula I are identified by numbers that correspond to those in Table 1.

`C=CCN(CCNC(=C[N+](=O)[O-])SCc1ccc(C(F)(F)F)cc1)Cc1ccc(Cl)nc1` [Compound 328] was tested, and the “Percent Mortality” value was 83%.

Same assay, conditions: 0.25 millimolar on the surface of the diet; second instar larvae; five-day exposure; insect weight relative to untreated controls

In order of falling “Percent Growth Inhibition” value:
1. O=[N+]([O-])C=C(NCCN(Cc1ccc(Cl)nc1)Cc1ccc(Cl)nc1)SCc1c(F)c(F)c(F)c(F)c1F [Compound 318]  100%
2. Cc1ccc(CSC(=C[N+](=O)[O-])NCCN(Cc2ccc(Cl)nc2)Cc2ccc(Cl)nc2)cc1 [Compound 321]  100%
3. O=[N+]([O-])C=C(NCCN(Cc1ccc(Cl)nc1)Cc1ccc(Cl)nc1)SCc1ccccc1C(F)(F)F [Compound 322]  100%
4. O=[N+]([O-])C=C(NCCN(Cc1ccc(Cl)nc1)Cc1ccc(Cl)nc1)SCc1cccc(C(F)(F)F)c1 [Compound 323]  100%
5. O=[N+]([O-])C=C(NCCN(Cc1ccc(Cl)nc1)Cc1ccc(Cl)nc1)SCc1ccc(C(F)(F)F)cc1 [Compound 324]  100%
6. COc1ccccc1CSC(=C[N+](=O)[O-])NCCN(Cc1ccc(Cl)nc1)Cc1ccc(Cl)nc1 [Compound 325]  100%
7. COc1cccc(CSC(=C[N+](=O)[O-])NCCN(Cc2ccc(Cl)nc2)Cc2ccc(Cl)nc2)c1 [Compound 326]  100%
8. COc1ccc(CSC(=C[N+](=O)[O-])NCCN(Cc2ccc(Cl)nc2)Cc2ccc(Cl)nc2)cc1 [Compound 327]  100%
9. O=[N+]([O-])C=C(NCCN(Cc1ccc(Cl)nc1)Cc1ccc(Cl)nc1)SCc1cccc(Cl)c1 [Compound 315]  98%
10. C=CCN(CCNC(=C[N+](=O)[O-])SCc1ccc(C(F)(F)F)cc1)Cc1ccc(Cl)nc1 [Compound 328]  98%
11. Cc1cccc(CSC(=C[N+](=O)[O-])NCCN(Cc2ccc(Cl)nc2)Cc2ccc(Cl)nc2)c1 [Compound 320]  96%
12. C#CCN(CCN1COCNC1=N[N+](=O)[O-])Cc1ccc(Cl)nc1 [Compound 558]  85%
13. Cc1ccccc1CSC(=C[N+](=O)[O-])NCCN(Cc1ccc(Cl)nc1)Cc1ccc(Cl)nc1 [Compound 319]  10%
